SMILES strings stand for the structures.

The data set can be described thus: in vitro. As to conditions: human, plasma, PPB.
Take `CCCc1cc(C2=N[C@@H](C(=O)NO)CO2)cc(OC)c1OC`: the free fraction (fraction unbound) at 5 h was 0.0568.

Take `Cc1cnc(Nc2nc(N[C@@H](C)c3ncc(F)cn3)nc(N3CCOCC3)c2F)s1`: the unbound share (fraction unbound) at 5 h was 0.069. Turning to `CN[C@@H](C)C(=O)N[C@H](C(=O)N1CCC[C@H]1C(=O)N[C@@H]1CCCc2ccccc21)C(C)(C)C`, the fraction unbound at 5 h was 0.0801. Regarding `O=C(/C=C/c1ccccc1Cl)Nc1ccc2c(c1)C(=O)NC2=O`, the fraction unbound at 5 h was 0.0948. Compound `O=C(COc1ccccc1Cl)c1ccc[nH]1` had a free fraction (fraction unbound) at 5 h of 0.0676. With `O=C(O)c1ccc2nc(C(F)(F)F)[nH]c2c1`, the free fraction (fraction unbound) at 5 h was 0.101. The same measure for `NS(=O)(=O)c1ccc(N2N=C(c3ccc(Br)cc3)CC2c2ccc(F)cc2)cc1` (stereo not drawn): 0.105. The compound `Cc1nccn1-c1ccc(COc2cc(F)cc(C3(C(N)=O)CCOCC3)c2)cc1` gave a fraction unbound at 5 h of 0.101. The same measure for `C[C@H](Nc1ncc(Cl)c(Nc2cc(C3CC3)[nH]n2)n1)c1ncc(F)cn1`: 0.0568. Consider `Cc1cc(Nc2nc(N[C@@H](C)c3ncc(F)cn3)nc(N3CCOCC3)c2F)n[nH]1`, for which the fraction unbound at 5 h is 0.0836. `COc1ccc2c(c1)N(CCN1CCC(NCc3cc4c(cn3)OCCO4)CC1)C(=O)CS2` gave an unbound share (fraction unbound) at 5 h of 0.0948. Compound `CC(=O)Nc1cccc2c1c(Oc1ccc(Cl)cc1)c(C)n2CC(=O)O` had a fraction unbound at 5 h of 0.124. In turn, `CC(C)c1ccc(/C=N/NC(=O)c2ccc(O)cc2)cc1` had an unbound share (fraction unbound) at 5 h of 0.0568. Consider `CN[C@@H](C)C(=O)N[C@H](C(=O)N[C@H]1CCCN([C@@H]2CCCc3ccccc32)C1)C1CCCCC1`, for which the fraction unbound at 5 h is 0.0676. The same measure for `CN[C@@H](C)C(=O)N[C@H](C(=O)N[C@H]1CCCN(CCc2ccc(F)cc2)C1)C(C)(C)C`: 0.0784. In turn, `COc1cc(OC)c(S(=O)(=O)NCc2ccccc2N2CCC(CC(=O)O)CC2)cc1NC(=O)CCC(=O)O` had a fraction unbound at 5 h of 0.0872. With `Cc1nccn1-c1ccc(Sc2cccc(C3(C(N)=O)CCOCC3)c2)cc1`, the unbound share (fraction unbound) at 5 h is 0.069. `CCNC(=O)c1cc2c(-n3ccc(C(F)(F)F)n3)c(-c3cncc(C(=O)O)c3)cnc2[nH]1` had an unbound share (fraction unbound) at 5 h of 0.117. `CCCNC(=O)c1cc2c(-n3ccc(C(F)(F)F)n3)c(-c3cncc(C(=O)O)c3)cnc2[nH]1` showed a fraction unbound at 5 h of 0.0768.

Regarding `CC(=O)Nc1ccc2c(c1)N(c1cc(NC3CC3)n3ncc(C#N)c3n1)CCO2`, the unbound share (fraction unbound) at 5 h was 0.0752. As to `CC(=O)Nc1ccc2ccn(-c3cc(NCCN4CCOCC4)n4ncc(C#N)c4n3)c2c1`, the fraction unbound at 5 h is 0.112. Regarding `COc1cnc(-c2ccccn2)nc1N1CCCCC1`, the free fraction (fraction unbound) at 5 h is 0.0488. `CC(C)(C)Oc1ccc(C(=O)Nc2ccc3sc(CO)nc3c2)cc1` showed a fraction unbound at 5 h of 0.051. The same measure for `COc1cc(OC)c(S(=O)(=O)N2c3ccccc3CCC2C)cc1NC(=O)Cc1ccnc(F)c1` (stereo not drawn): 0.0544; for `COc1cc(OC)c(S(=O)(=O)N2c3ccccc3CCC2C)cc1NC(=O)CCc1nn[nH]n1` (stereo not drawn): 0.0647. With `Cc1cccc(Oc2cc(S(=O)(=O)N3CCC[C@H](n4cc(C)c(=O)[nH]c4=O)C3)ccc2C(=O)O)c1`, the fraction unbound at 5 h is 0.0568. As for `CCOc1cc2ncc(C(N)=O)c(Nc3cc(F)ccc3F)c2cc1N1CCN(C)CC1`, the fraction unbound at 5 h is 0.0736. Compound `CC(C)Oc1cc2ncc(C(N)=O)c(Nc3cccc(Cl)c3F)c2cc1N1CCN(C)CC1` had a fraction unbound at 5 h of 0.0488. In turn, `COCCOc1cc2ncc(C(N)=O)c(Nc3cccc(Cl)c3Cl)c2cc1N1CCN(C)CC1` gave a free fraction (fraction unbound) at 5 h of 0.103.

`CN1CCN(c2ccc3ncc(C(N)=O)c(Nc4ccc(Cl)c(Cl)c4)c3c2)CC1` had a fraction unbound at 5 h of 0.0581.

As to `CCOc1cc2ncc(C(N)=O)c(Nc3cccc(Cl)c3Cl)c2cc1N1CCN(C(C)=O)CC1`, the free fraction (fraction unbound) at 5 h is 0.0968. Compound `CCOc1cc2ncc(C(N)=O)c(Nc3ccc(F)cc3F)c2cc1N1CCOCC1` had an unbound share (fraction unbound) at 5 h of 0.0836. Compound `O=C(NCC12CC3CC(CC(C3)C1)C2)c1cc(OCCNCCCO)ncc1Cl` had an unbound share (fraction unbound) at 5 h of 0.11.

The values are drawn from ChEMBL document CHEMBL3301361, “Experimental in vitro DMPK and physicochemical data on a set of publicly disclosed compounds”.
